Test results published in US12319655B2, “RAF kinase inhibitors and methods of use thereof” (Deciphera Pharmaceuticals, LLC, priority 2021, dated 2025).

Experiments:
[1] = biological target: B-Raf (V600E) (SEQ. ID NO: 4) kinase (Homo sapiens (Human), UniProt P15056, V600E); assay: Biochemical Assay for B-Raf (V600E) (1); conditions: Table J, BRAF V600E, assay version (1); read-out: BRAF VE (1) IC50
Procedure, shortened: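 Coupled pyruvate kinase/lactate dehydrogenase assay: 0.03 nM B-Raf V600E, 30.1 nM MEK, 1 mM ATP, pH 7.5 Tris/MgCl2 buffer, 1% DMSO. NADH oxidation followed at 340 nm for 6 h at 30 °C; rate from 3–4 h converted to percent inhibition, IC50 by four-parameter fit.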

[2] = biological target: B-Raf kinase (SEQ. ID NO: 2) (Homo sapiens (Human), UniProt P15056); assay: Biochemical Assay for B-Raf (1); conditions: Table J, assay version (1); read-out: BRAF (1) IC50
Sequence of B-Raf kinase (SEQ. ID NO: 2) (P15056 416-766): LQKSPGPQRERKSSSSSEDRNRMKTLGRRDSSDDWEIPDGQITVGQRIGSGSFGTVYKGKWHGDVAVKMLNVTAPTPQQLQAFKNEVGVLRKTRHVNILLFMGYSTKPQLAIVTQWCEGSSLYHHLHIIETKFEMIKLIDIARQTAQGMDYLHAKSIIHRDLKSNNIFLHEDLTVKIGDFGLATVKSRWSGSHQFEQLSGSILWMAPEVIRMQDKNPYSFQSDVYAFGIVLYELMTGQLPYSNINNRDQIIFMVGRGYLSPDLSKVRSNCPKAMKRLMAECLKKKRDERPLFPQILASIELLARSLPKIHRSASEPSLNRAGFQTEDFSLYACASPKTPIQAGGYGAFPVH
Procedure, shortened: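 Continuous PK/LDH-coupled NADH oxidation assay, A340 read for 6 h at 30° C., with 0.13 nM B-Raf, 30.1 nM MEK substrate and 1 mM ATP in Tris pH 7.5, MgCl2, DTT, detergents, 1% DMSO. Rate taken from 4–5 h window; percent inhibition vs no-compound and known-inhibitor controls; four-parameter fit gives IC50.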

H2405 cells = assay: H2405 Cell Proliferation Assay (1); assay type: cell-based; conditions: Homo sapiens, NCI-H2405
Description: H2405 Cell Proliferation Assay (1)
H2405 cells (catalog #CRL-5994) are obtained from the American Type Culture Collect (ATTC, Manassas, VA). Briefly, cells were grown in RPMI 1640 supplemented with 5% characterized fetal bovine serum (Invitrogen, Carlsbad, CA) and 1% Penicillin/Streptomycin/L-Glutamine at 37° C., 5% CO2, and 95% humidity. Cells are expanded until reaching 70-95% confluency at which point they are sub-cultured or harvested for assay use. A serial dilution of test compound is dispensed into a 96-well black clear bottom plate in triplicate. Three thousand cells are added per well in 200 μL complete growth medium in the 96-well plate. Plates are incubated for 67-72 h at 37° C., 5% CO2, and 95% humidity. At the end of the incubation, 40 μL of a 440 μM solution of resazurin (Sigma, St. Louis, MO) in PBS is added to each well of the plate and plates are incubated for an additional 5-6 h at 37° C., 5% CO2, and 95% humidity. Plates are read on a Synergy2 or equivalent reader (Biotek, Winooski VT) using an excitation of 540 nm and an emission of 600 nm. Data is analyzed using Prism software (GraphPad, San Diego, CA) to calculate IC50 values.

WM3928 cells = assay: WM3928 Cell Proliferation Assay (1); assay type: cell-based
Procedure, shortened: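 IC50 was derived from resazurin fluorescence (ex 540, em 600 nm) after a 6–7 h dye incubation. Before that, cells had 67–72 h of compound exposure at 37 °C, 5% CO2.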

Sequence of B-Raf (V600E) (SEQ. ID NO: 4) kinase (P15056 416-766 V600E): as the sequence (P15056 416-766) above, with V185E counted along it

Compound	IC50 [1]	IC50 [2]	IC50 (H2405 cells)	IC50 (WM3928 cells)
CCOc1cc(-c2cc(NC(=O)c3ccnc(C(F)(F)F)c3)ccc2C)cc(-c2ccnc(NC(=O)C3CC3)c2)n1 [Example 12]	≤ 100 nM	≤ 100 nM	100 to 500 nM	–
Cc1ccc(NC(=O)c2ccnc(C(F)(F)F)c2)cc1-c1cc(-c2ccnc(NC(=O)C3CC3)c2)n(C)c(=O)c1 [Example 13]	≤ 100 nM	≤ 100 nM	–	–
CC(=O)Nc1cc(-c2cc(-c3cc(NC(=O)c4ccnc(C(F)(F)F)c4)ccc3C)cc(C3CC3)n2)ccn1 [Example 14]	≤ 100 nM	≤ 100 nM	–	–
CC(=O)Nc1cc(-c2cc(-c3cc(NC(=O)c4ccnc(C(F)(F)F)c4)ccc3C)cc(N3CCOCC3)n2)ccn1 [Example 15]	≤ 100 nM	≤ 100 nM	≤ 100 nM	–
Cc1ccc(NC(=O)c2ccnc(C(F)(F)F)c2)cc1-c1ccnc(-c2ccnc(N)c2)c1 [Example 16, N-(3-(2′-amino-[2,4′-bipyridin]-4-yl)-4-methylphenyl)-2-(trifluoromethyl)isonicotinamide]	≤ 100 nM	≤ 100 nM	1000 to 10000 nM	1000 to 10000 nM
Cc1ccc(NC(=O)c2ccnc(C(F)(F)F)c2)cc1-c1ccnc(-c2ccnc(NC(=O)CN(C)C)c2)c1 [Example 17]	≤ 100 nM	≤ 100 nM	–	–
Cc1ccc(NC(=O)c2ccnc(C(F)(F)F)c2)cc1-c1ccnc(-c2ccnc3c2CC(=O)N3)c1 [Example 18]	≤ 100 nM	≤ 100 nM	–	–
CC(=O)Nc1cc(-c2cc(-c3cc(NC(=O)c4ccnc(C(C)(C)C#N)c4)ccc3C)ccn2)ccn1 [Example 19]	≤ 100 nM	≤ 100 nM	≤ 100 nM	–
Cc1cc(-c2cc(NC(=O)c3ccnc(C(F)(F)F)c3)ccc2C)cc(-c2ccnc3c2CC(=O)N3)n1 [Example 20]	≤ 100 nM	≤ 100 nM	–	–
Cc1ccc(NC(=O)c2cc(CN(C)C)cc(C(F)(F)F)c2)cc1-c1cncc(-c2ccnc(NC(=O)C3CC3)c2)n1 [Example 185]	≤ 100 nM	≤ 100 nM	≤ 100 nM	≤ 100 nM
Cc1ccc(NC(=O)c2ccnc(C(C)(C)F)c2)cc1-c1ccnc(-c2ccnc(NC(=O)C3CC3)c2)n1 [Example 186]	≤ 100 nM	≤ 100 nM	≤ 100 nM	≤ 100 nM
Cc1ccc(NC(=O)c2ccnc(C3(C#N)CC3)c2)cc1-c1nccc(-c2ccnc(NC(=O)C3CC3)c2)n1 [Example 187]	≤ 100 nM	≤ 100 nM	100 to 500 nM	≤ 100 nM
Cc1ccc(NC(=O)c2ccnc(C(F)F)c2)cc1-c1ccnc(-c2ccnc(NC(=O)C3CC3)c2)n1 [Example 189]	≤ 100 nM	≤ 100 nM	100 to 500 nM	≤ 100 nM
COC(C)(C)c1cc(C(=O)Nc2ccc(C)c(-c3ccnc(-c4ccnc(NC(=O)C5CC5)c4)n3)c2)ccn1 [Example 190]	≤ 100 nM	≤ 100 nM	–	≤ 100 nM
CNC(=O)c1cc(-c2nccc(-c3cc(NC(=O)c4ccnc(C(C)(C)C#N)c4)cnc3C)n2)ccn1 [Example 194]	≤ 100 nM	500 to 1000 nM	–	100 to 500 nM
Cc1ccc(NC(=O)c2ccnc(C(C)(C)C#N)c2)cc1-c1cccc(-c2cc(NC(=O)C3(C)CC3)ncn2)c1 [Example 197]	≤ 100 nM	500 to 1000 nM	–	≤ 100 nM
Cc1ccc(NC(=O)c2ccnc(C(C)(C)C#N)c2)cc1-c1cccc(-c2cc(NC(=O)C3(F)CC3)ncn2)c1 [Example 200]	≤ 100 nM	100 to 500 nM	–	≤ 100 nM
Cc1ccc(NC(=O)c2ccnc(C3(C#N)CC3)c2)cc1-c1cccc(-c2cc(NC(=O)C3CC3)ncn2)c1 [Example 203]	≤ 100 nM	≤ 100 nM	–	≤ 100 nM
CNC(=O)c1cc(-c2cc(-c3cc(NC(=O)c4ccnc(C(C)(C)C#N)c4)ccc3F)ccn2)ccn1 [Example 205]	≤ 100 nM	100 to 500 nM	–	100 to 500 nM
Cc1ncc(NC(=O)c2ccnc(C(C)(C)C#N)c2)cc1-c1cccc(-c2cc(N)ncn2)c1 [Example 207]	≤ 100 nM	100 to 500 nM	1000 to 10000 nM	–
Cc1cc(-c2cc(NC(=O)C3CC3)ncn2)cc(-c2cc(NC(=O)c3ccnc(C(C)(C)C#N)c3)ccc2C)c1 [Example 212]	≤ 100 nM	≤ 100 nM	≤ 100 nM	–

Compound	IC50 [1]	IC50 [2]	IC50 (H2405 cells)	IC50 (WM3928 cells)
Cc1ncc(NC(=O)c2ccnc(C(C)(C)C#N)c2)cc1-c1cccc(-c2cc(NC(=O)C(C)(C)C)ncn2)c1 [Example 213]	≤ 100 nM	1000 to 10000 nM	–	100 to 500 nM
CNC(=O)c1cc(-c2cc(-c3cc(NC(=O)c4cnnc(C5CC5)c4)ccc3C)ccn2)ccn1 [Example 215]	≤ 100 nM	≤ 100 nM	–	500 to 1000 nM
Cc1ccc(NC(=O)c2ccnc(C(C)(C)C#N)c2)cc1-c1cc(-c2cc(NC(=O)C3CC3)ncn2)cc(C2CC2)c1 [Example 216]	≤ 100 nM	100 to 500 nM	–	≤ 100 nM
Cc1ncc(NC(=O)c2ccnc(C(C)(C)C#N)c2)cc1-c1ccnc(-c2ccnc(NC(=O)C(C)(C)C#N)c2)c1 [Example 219]	≤ 100 nM	100 to 500 nM	–	100 to 500 nM
Cc1ccc(NC(=O)c2ccnc(C3(C#N)CC3)c2)cc1-c1cccc(-c2cc(NC(=O)C3CC3)ncn2)n1 [Example 220]	≤ 100 nM	100 to 500 nM	–	1000 to 10000 nM
Cc1ncc(NC(=O)c2ccnc(C(C)(C)C#N)c2)cc1-c1cccc(-c2cc(NC(=O)C3CC3)ncn2)n1 [Example 226]	100 to 500 nM	1000 to 10000 nM	–	1000 to 10000 nM
Cc1ccc(NC(=O)c2ccnc(C(C)(C)C#N)c2)cc1-c1cccc(-c2cc(NC(=O)C3CC3)ncn2)n1 [Example 233]	≤ 100 nM	100 to 500 nM	–	1000 to 10000 nM
COC(C)(C)C(=O)Nc1cc(-c2cc(-c3cc(NC(=O)c4ccnc(C(C)(C)C#N)c4)ccc3C)ccn2)ccn1 [Example 237]	≤ 100 nM	100 to 500 nM	500 to 1000 nM	–
CC(C)(C#N)c1cc(C(=O)Nc2ccc(C#N)c(-c3cccc(-c4cc(NC(=O)C5CC5)ncn4)c3)c2)ccn1 [Example 240]	≤ 100 nM	100 to 500 nM	100 to 500 nM	–
CNC(=O)c1cc(-c2ccnc(-c3cc(NC(=O)c4ccnc(C(C)(C)F)c4)ccc3C)n2)ccn1 [Example 246]	≤ 100 nM	100 to 500 nM	100 to 500 nM	–
CNC(=O)c1cc(-c2cc(-c3cc(NC(=O)c4ccnc(C(C)(C)C#N)c4)ccc3C#N)ccn2)ccn1 [Example 247]	≤ 100 nM	1000 to 10000 nM	100 to 500 nM	–
Cc1cc(F)c(NC(=O)c2cnnc(C3CC3)c2)cc1-c1nccc(-c2ccnc(NC(=O)C3CC3)c2)n1 [Example 252]	≤ 100 nM	≤ 100 nM	–	500 to 1000 nM
Cc1ccc(NC(=O)c2ccnc(C(C)(C)C#N)c2)cc1-c1ccnc(-c2ccnc(NC(=O)C3CC3)c2)n1 [Example 257]	≤ 100 nM	≤ 100 nM	–	≤ 100 nM
CNC(=O)c1cc(-c2cc(-c3cc(NC(=O)c4ccnc(C(C)(C)C#N)c4)ccc3F)cc(C)n2)ccn1 [Example 259]	≤ 100 nM	100 to 500 nM	100 to 500 nM	–
Cc1cc(F)c(NC(=O)c2ccnc(C3(C#N)CC3)c2)cc1-c1ccnc(-c2ccnc(NC(=O)C3CC3)c2)n1 [Example 262]	≤ 100 nM	≤ 100 nM	–	≤ 100 nM
Cc1cc(F)c(NC(=O)c2cnnc(C3CC3)c2)cc1-c1ccnc(-c2ccnc(NC(=O)C3CC3)c2)n1 [Example 263]	≤ 100 nM	≤ 100 nM	–	500 to 1000 nM
CCNC(=O)c1cc(-c2cc(-c3cc(NC(=O)c4ccnc(C(C)(C)C#N)c4)ccc3C)ccn2)ccn1 [Example 266]	≤ 100 nM	100 to 500 nM	100 to 500 nM	–
CNC(=O)c1cc(-c2ccnc(-c3cc(NC(=O)c4ccnc(C(C)(C)OC)c4)ccc3C)n2)ccn1 [Example 268]	≤ 100 nM	100 to 500 nM	100 to 500 nM	–
Cc1ncc(NC(=O)c2ccnc(C(C)C)c2)cc1-c1cccc(-c2ccnc(NC(=O)C3CC3)c2)n1 [Example 269]	≤ 100 nM	≤ 100 nM	≤ 100 nM	–
Cc1cc(F)c(NC(=O)c2ccnc(C(C)(C)F)c2)cc1-c1cncc(-c2ccnc(NC(=O)C3CC3)c2)n1 [Example 276]	≤ 100 nM	≤ 100 nM	≤ 100 nM	–
